± gives the expanded uncertainty stated by the source.
Assay: xn = mol fraction of the nth substance listed
Conditions: Constant-volume piezometry

## CCCCC [pentane] + CCCO
533.15 K, 7168 kPa, Fluid (supercritical or subcritical phases), x1 = 0.8
  mass density: 234.59 ± 1.2 kg/m3
533.15 K, 7364 kPa, Fluid (supercritical or subcritical phases), x1 = 0.8
  mass density: 245.22 ± 1.2 kg/m3
533.15 K, 7629 kPa, Fluid (supercritical or subcritical phases), x1 = 0.2
  mass density: 378.44 ± 1.9 kg/m3
533.15 K, 7638 kPa, Fluid (supercritical or subcritical phases), x1 = 0.8
  mass density: 258.44 ± 1.3 kg/m3
533.15 K, 7786 kPa, Fluid (supercritical or subcritical phases), x1 = 0.2
  mass density: 383.24 ± 1.9 kg/m3
533.15 K, 7963 kPa, Fluid (supercritical or subcritical phases), x1 = 0.8
  mass density: 272.4 ± 1.4 kg/m3
533.15 K, 8071 kPa, Fluid (supercritical or subcritical phases), x1 = 0.9
  mass density: 281.87 ± 1.4 kg/m3
533.15 K, 8098 kPa, Fluid (supercritical or subcritical phases), x1 = 0.2
  mass density: 391.08 ± 2 kg/m3
533.15 K, 8423 kPa, Fluid (supercritical or subcritical phases), x1 = 0.8
  mass density: 288.24 ± 1.4 kg/m3
533.15 K, 8569 kPa, Fluid (supercritical or subcritical phases), x1 = 0.9
  mass density: 301.54 ± 1.5 kg/m3
533.15 K, 8748 kPa, Fluid (supercritical or subcritical phases), x1 = 0.8
  mass density: 299.05 ± 1.5 kg/m3
533.15 K, 9002 kPa, Fluid (supercritical or subcritical phases), x1 = 0.9
  mass density: 312.17 ± 1.6 kg/m3
533.15 K, 9374 kPa, Fluid (supercritical or subcritical phases), x1 = 0.2
  mass density: 418.49 ± 2.1 kg/m3
533.15 K, 9413 kPa, Fluid (supercritical or subcritical phases), x1 = 0.8
  mass density: 315.21 ± 1.6 kg/m3
533.15 K, 10061 kPa, Fluid (supercritical or subcritical phases), x1 = 0.9
  mass density: 333.87 ± 1.7 kg/m3
533.15 K, 10217 kPa, Fluid (supercritical or subcritical phases), x1 = 0.8
  mass density: 333.69 ± 1.7 kg/m3
533.15 K, 10835 kPa, Fluid (supercritical or subcritical phases), x1 = 0.8
  mass density: 345.21 ± 1.7 kg/m3
533.15 K, 11530 kPa, Fluid (supercritical or subcritical phases), x1 = 0.9
  mass density: 353.95 ± 1.8 kg/m3
533.15 K, 12119 kPa, Fluid (supercritical or subcritical phases), x1 = 0.8
  mass density: 361.76 ± 1.8 kg/m3
533.15 K, 13530 kPa, Fluid (supercritical or subcritical phases), x1 = 0.2
  mass density: 470.12 ± 2.4 kg/m3
533.15 K, 17294 kPa, Fluid (supercritical or subcritical phases), x1 = 0.9
  mass density: 407.1 ± 2 kg/m3
533.15 K, 18236 kPa, Fluid (supercritical or subcritical phases), x1 = 0.8
  mass density: 418.01 ± 2.1 kg/m3
533.15 K, 19667 kPa, Fluid (supercritical or subcritical phases), x1 = 0.2
  mass density: 509.31 ± 2.6 kg/m3
533.15 K, 29155 kPa, Fluid (supercritical or subcritical phases), x1 = 0.8
  mass density: 466.47 ± 2.4 kg/m3
533.15 K, 29696 kPa, Fluid (supercritical or subcritical phases), x1 = 0.2
  mass density: 546.72 ± 2.8 kg/m3
533.15 K, 39686 kPa, Fluid (supercritical or subcritical phases), x1 = 0.8
  mass density: 495.86 ± 2.5 kg/m3
533.15 K, 44516 kPa, Fluid (supercritical or subcritical phases), x1 = 0.2
  mass density: 580.98 ± 2.9 kg/m3
543.15 K, 1370 kPa, Gas, x1 = 0.8
  mass density: 22.5 ± 0.07 kg/m3
543.15 K, 1634 kPa, Gas, x1 = 0.2
  mass density: 24.9 ± 0.08 kg/m3
543.15 K, 2088 kPa, Gas, x1 = 0.8
  mass density: 36.65 ± 0.11 kg/m3
543.15 K, 3070 kPa, Gas, x1 = 0.8
  mass density: 58.36 ± 0.18 kg/m3
543.15 K, 3378 kPa, Gas, x1 = 0.2
  mass density: 52.95 ± 0.16 kg/m3
543.15 K, 3671 kPa, Gas, x1 = 0.8
  mass density: 73.72 ± 0.23 kg/m3
543.15 K, 3909 kPa, Fluid (supercritical or subcritical phases), x1 = 0.9
  mass density: 83.3 ± 0.42 kg/m3
543.15 K, 4468 kPa, Gas, x1 = 0.2
  mass density: 91.32 ± 0.29 kg/m3
543.15 K, 4745 kPa, Fluid (supercritical or subcritical phases), x1 = 0.8
  mass density: 106.3 ± 0.54 kg/m3
543.15 K, 5031 kPa, Fluid (supercritical or subcritical phases), x1 = 0.2
  mass density: 114.24 ± 0.59 kg/m3
543.15 K, 5063 kPa, Fluid (supercritical or subcritical phases), x1 = 0.9
  mass density: 123.23 ± 0.63 kg/m3
543.15 K, 5339 kPa, Fluid (supercritical or subcritical phases), x1 = 0.9
  mass density: 133.99 ± 0.68 kg/m3
543.15 K, 5679 kPa, Fluid (supercritical or subcritical phases), x1 = 0.2
  mass density: 150.2 ± 0.77 kg/m3
543.15 K, 5755 kPa, Fluid (supercritical or subcritical phases), x1 = 0.8
  mass density: 140.17 ± 0.71 kg/m3
543.15 K, 6004 kPa, Fluid (supercritical or subcritical phases), x1 = 0.9
  mass density: 163.8 ± 0.83 kg/m3
543.15 K, 6026 kPa, Fluid (supercritical or subcritical phases), x1 = 0.2
  mass density: 175.44 ± 0.92 kg/m3
543.15 K, 6054 kPa, Fluid (supercritical or subcritical phases), x1 = 0.8
  mass density: 155.89 ± 0.8 kg/m3
543.15 K, 6187 kPa, Fluid (supercritical or subcritical phases), x1 = 0.2
  mass density: 189.45 ± 0.98 kg/m3
543.15 K, 6358 kPa, Fluid (supercritical or subcritical phases), x1 = 0.8
  mass density: 169.62 ± 0.87 kg/m3
543.15 K, 6471 kPa, Fluid (supercritical or subcritical phases), x1 = 0.2
  mass density: 219.88 ± 1.1 kg/m3
543.15 K, 6471 kPa, Fluid (supercritical or subcritical phases), x1 = 0.8
  mass density: 175.86 ± 0.89 kg/m3
543.15 K, 6570 kPa, Fluid (supercritical or subcritical phases), x1 = 0.9
  mass density: 189.27 ± 0.96 kg/m3
543.15 K, 6584 kPa, Fluid (supercritical or subcritical phases), x1 = 0.8
  mass density: 180.65 ± 0.92 kg/m3
543.15 K, 6716 kPa, Fluid (supercritical or subcritical phases), x1 = 0.2
  mass density: 245.23 ± 1.3 kg/m3
543.15 K, 6834 kPa, Fluid (supercritical or subcritical phases), x1 = 0.2
  mass density: 258.94 ± 1.3 kg/m3
543.15 K, 6836 kPa, Fluid (supercritical or subcritical phases), x1 = 0.8
  mass density: 192.97 ± 0.98 kg/m3
543.15 K, 6846 kPa, Fluid (supercritical or subcritical phases), x1 = 0.9
  mass density: 202.18 ± 1 kg/m3
543.15 K, 6875 kPa, Fluid (supercritical or subcritical phases), x1 = 0.2
  mass density: 262.64 ± 1.4 kg/m3
543.15 K, 6963 kPa, Fluid (supercritical or subcritical phases), x1 = 0.2
  mass density: 272.09 ± 1.4 kg/m3
543.15 K, 7154 kPa, Fluid (supercritical or subcritical phases), x1 = 0.2
  mass density: 290.25 ± 1.5 kg/m3
543.15 K, 7246 kPa, Fluid (supercritical or subcritical phases), x1 = 0.9
  mass density: 220.47 ± 1.1 kg/m3
543.15 K, 7269 kPa, Fluid (supercritical or subcritical phases), x1 = 0.8
  mass density: 213.64 ± 1.1 kg/m3
543.15 K, 7363 kPa, Fluid (supercritical or subcritical phases), x1 = 0.2
  mass density: 306.52 ± 1.6 kg/m3
543.15 K, 7405 kPa, Fluid (supercritical or subcritical phases), x1 = 0.8
  mass density: 219.4 ± 1.1 kg/m3
543.15 K, 7419 kPa, Fluid (supercritical or subcritical phases), x1 = 0.2
  mass density: 310.74 ± 1.6 kg/m3
543.15 K, 7511 kPa, Fluid (supercritical or subcritical phases), x1 = 0.2
  mass density: 318.45 ± 1.6 kg/m3
543.15 K, 7520 kPa, Fluid (supercritical or subcritical phases), x1 = 0.9
  mass density: 232.83 ± 1.2 kg/m3
543.15 K, 7591 kPa, Fluid (supercritical or subcritical phases), x1 = 0.9
  mass density: 236.29 ± 1.2 kg/m3
543.15 K, 7689 kPa, Fluid (supercritical or subcritical phases), x1 = 0.9
  mass density: 240.69 ± 1.2 kg/m3
543.15 K, 7747 kPa, Fluid (supercritical or subcritical phases), x1 = 0.8
  mass density: 234.47 ± 1.2 kg/m3
543.15 K, 7760 kPa, Fluid (supercritical or subcritical phases), x1 = 0.9
  mass density: 244 ± 1.2 kg/m3
543.15 K, 7964 kPa, Fluid (supercritical or subcritical phases), x1 = 0.2
  mass density: 340.91 ± 1.7 kg/m3
543.15 K, 7983 kPa, Fluid (supercritical or subcritical phases), x1 = 0.8
  mass density: 245.1 ± 1.2 kg/m3
543.15 K, 8042 kPa, Fluid (supercritical or subcritical phases), x1 = 0.2
  mass density: 343.7 ± 1.7 kg/m3
543.15 K, 8294 kPa, Fluid (supercritical or subcritical phases), x1 = 0.8
  mass density: 258.31 ± 1.3 kg/m3
543.15 K, 8708 kPa, Fluid (supercritical or subcritical phases), x1 = 0.8
  mass density: 272.26 ± 1.4 kg/m3
543.15 K, 8845 kPa, Fluid (supercritical or subcritical phases), x1 = 0.9
  mass density: 281.73 ± 1.4 kg/m3

Source: the NIST ThermoML archive (doi:10.1016/j.jct.2016.10.023)
